From PMC8954575, “Norepinephrine and Serotonin Can Modulate the Behavior of the Probiotic Enterococcus faecium NCIMB10415 towards the Host: Is a Putative Surface Sensor Involved?” (Microorganisms, 2022)

Biological target: T1, VicK (WalK) (Enterococcus faecium, UniProt Q3XYG9)
T1 construct: VicK (WalK) from a synthetic codon-optimized gene in pET-15b, N-terminal His-tag, purified from E. coli BL21 with DDM, RED-NHS labelled
T1 sequence (Q3XYG9 1-611): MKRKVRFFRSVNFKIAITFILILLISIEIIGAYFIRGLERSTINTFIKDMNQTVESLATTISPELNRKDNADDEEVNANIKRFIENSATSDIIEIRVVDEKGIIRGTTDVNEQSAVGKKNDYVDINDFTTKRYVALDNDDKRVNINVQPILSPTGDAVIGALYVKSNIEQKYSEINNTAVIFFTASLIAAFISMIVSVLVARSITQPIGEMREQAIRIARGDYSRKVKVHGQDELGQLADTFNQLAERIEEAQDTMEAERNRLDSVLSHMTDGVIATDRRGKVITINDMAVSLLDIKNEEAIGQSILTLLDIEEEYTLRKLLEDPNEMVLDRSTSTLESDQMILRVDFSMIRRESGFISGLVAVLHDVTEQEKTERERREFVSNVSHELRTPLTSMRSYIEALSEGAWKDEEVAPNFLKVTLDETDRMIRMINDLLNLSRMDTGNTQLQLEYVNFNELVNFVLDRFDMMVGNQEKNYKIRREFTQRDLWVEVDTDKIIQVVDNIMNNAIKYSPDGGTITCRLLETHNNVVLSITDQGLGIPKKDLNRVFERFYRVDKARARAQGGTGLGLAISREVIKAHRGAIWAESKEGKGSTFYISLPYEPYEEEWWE
Experiment: Micro-Scale Thermophoresis with purified labelled protein
Format: binding

How did the Kd turn out when `NCCc1c[nH]c2ccc(O)cc12` [5HT, serotonin] was run?
Its Kd is 4.5 ± 0.07 mM.
